Experiment [1] concerns A549. As to the kind of experiment: Anti-proliferative activity, CellTiter-96 assay, A549. It is filed as cell-based. To be noted: Homo sapiens, A549 cells, 72 hours incubation. The method, then:
(§1) Antiproliferative Activity
(§2) The anti-proliferative activities of the compounds with formula (I) and formula (II) with respect to four human cancer cell lines (A549, A375, MDA-MB-231, and COLO205) were measured using the CellTiter™-96 assay kit (Promega) following the manufacturer's instructions. In brief, the cells were maintained in DMEM containing 10% FCS and incubated at 37° C. in 5% CO2 atmosphere. Cells were plated at a density of 2000 cells/well of a 96-well plate for 24 h, then treated with different concentrations of the compounds, and incubated for another 72 hours. At the end of the incubation, CellTiter™-96 Aqueous One Solution Reagent (Promega) was added and incubated for another 4.0 hours. Cell viability was determined by measuring absorbance at 490 nm using EMax® microplate reader (Molecular Devices). Data were processed and analyzed using GraphPad Prism version 4.

The target of experiment [2] is C-Raf (Homo sapiens (Human), UniProt P04049). Put plainly: Raf kinase assay (C-Raf), [33P] incorporation into MEK1(K97R). It counts as biochemical. An outline of the steps:
(§3)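 [33P] transfer to kinase-dead MEK1(K97R) substrate (500 ng) measured after 30 min at 30 °C in Tris pH 7.5 buffer containing 8 μM ATP. Enzyme inputs were 2 ng for C-Raf and 5 ng for B-Raf and B-Raf V600E. Duplicate 3-fold serial dilutions gave the half-maximal inhibitory concentration.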

The target of experiment [3] is B-Raf (V600E) (Homo sapiens (Human), UniProt P15056, V600E). As to the kind of experiment: Raf kinase assay (B-Raf (V600E)), [33P] incorporation into MEK1(K97R). It counts as biochemical. An outline of the steps: as §3
Sequence of B-Raf (V600E) (P15056 whole entry V600E): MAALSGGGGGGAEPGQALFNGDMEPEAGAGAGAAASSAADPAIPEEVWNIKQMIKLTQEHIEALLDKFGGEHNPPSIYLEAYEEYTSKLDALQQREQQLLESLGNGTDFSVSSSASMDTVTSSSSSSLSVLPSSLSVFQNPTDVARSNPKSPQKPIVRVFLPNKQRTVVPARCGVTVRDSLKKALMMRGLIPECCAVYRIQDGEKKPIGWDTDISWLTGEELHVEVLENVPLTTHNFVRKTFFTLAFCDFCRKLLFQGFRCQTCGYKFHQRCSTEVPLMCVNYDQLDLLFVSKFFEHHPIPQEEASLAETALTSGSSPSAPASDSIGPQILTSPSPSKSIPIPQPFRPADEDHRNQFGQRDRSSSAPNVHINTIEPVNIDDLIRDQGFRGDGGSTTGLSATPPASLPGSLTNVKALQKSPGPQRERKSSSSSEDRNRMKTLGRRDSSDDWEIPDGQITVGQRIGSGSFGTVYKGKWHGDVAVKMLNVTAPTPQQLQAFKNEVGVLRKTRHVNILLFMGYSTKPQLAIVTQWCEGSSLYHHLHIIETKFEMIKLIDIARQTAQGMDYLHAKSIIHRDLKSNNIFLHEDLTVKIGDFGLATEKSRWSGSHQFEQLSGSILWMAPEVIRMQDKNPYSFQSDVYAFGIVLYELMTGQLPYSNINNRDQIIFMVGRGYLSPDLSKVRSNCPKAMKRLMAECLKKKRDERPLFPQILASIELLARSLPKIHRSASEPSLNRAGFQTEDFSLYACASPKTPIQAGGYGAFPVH
The target of experiment [4] is B-Raf (Homo sapiens (Human), UniProt P15056). Put plainly: Raf kinase assay (B-Raf), [33P] incorporation into MEK1(K97R). It counts as biochemical. To be noted: for inhibition at 1 µM: 1.0 μM compound, read-out: B-Raf inhibition at 1.0 μM. An outline of the steps:
as §3

For experiment [5], the system named is COLO205. Put plainly: Anti-proliferative activity, CellTiter-96 assay, COLO205. It is filed as cell-based. To be noted: Homo sapiens, COLO 205, COLO205 cells, 72 hours incubation. The method, then:
as §1, §2

The test system of experiment [6] is A375. As to the kind of experiment: Anti-proliferative activity, CellTiter-96 assay, A375. Particulars: Homo sapiens, A-375, A375 cells, 72 hours incubation. It is filed as cell-based. The method, then: as §1, §2
Experiment [7] has as its system MDA-MB-231. Put plainly: Anti-proliferative activity, CellTiter-96 assay, MDA-MB-231. It counts as cell-based. Particulars: Homo sapiens, MDA-MB-231 cells, 72 hours incubation. The method, then: as §1, §2

For orientation: IC50 means the concentration needed to halve the response being measured. A higher IC50 goes with weaker potency in that assay. One may read the inhibition as the relative decrease from the control value, in per cent.

Each structure is given as a SMILES string. A value given as a limit tells only on which side of the number the result lay.

Sequence of C-Raf (P04049 whole entry): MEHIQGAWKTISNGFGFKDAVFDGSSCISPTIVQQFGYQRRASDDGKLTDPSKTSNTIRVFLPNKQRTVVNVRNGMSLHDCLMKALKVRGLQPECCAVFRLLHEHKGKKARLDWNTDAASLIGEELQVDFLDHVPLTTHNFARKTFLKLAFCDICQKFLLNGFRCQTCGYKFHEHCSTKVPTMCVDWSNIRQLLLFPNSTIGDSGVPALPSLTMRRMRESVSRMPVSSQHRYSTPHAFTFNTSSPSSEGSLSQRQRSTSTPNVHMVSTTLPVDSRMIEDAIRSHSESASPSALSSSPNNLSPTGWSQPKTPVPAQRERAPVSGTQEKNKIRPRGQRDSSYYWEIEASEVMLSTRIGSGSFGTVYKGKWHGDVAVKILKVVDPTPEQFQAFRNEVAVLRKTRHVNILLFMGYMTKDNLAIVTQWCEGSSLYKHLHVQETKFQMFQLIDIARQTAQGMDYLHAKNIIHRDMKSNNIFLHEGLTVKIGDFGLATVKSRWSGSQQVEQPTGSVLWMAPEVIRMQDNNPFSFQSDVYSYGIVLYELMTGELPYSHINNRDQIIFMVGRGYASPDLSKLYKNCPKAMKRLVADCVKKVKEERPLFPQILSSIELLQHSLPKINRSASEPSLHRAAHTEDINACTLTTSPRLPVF
Sequence of B-Raf (P15056 whole entry): as the sequence (P15056 whole entry V600E) above, with E600V counted along it

Consider `COc1cc(-c2ccc3ncnc(Nc4ccccc4)c3c2)ccc1O` [Compound 1, 2-methoxy-4-(4-(phenylamino)quinazolin-6-yl)phenol], for which the IC50 in experiment [1] was found to be 1.3 ± 0.3 µM; in experiment [2], 2150 nM; in experiment [3], 760 nM; in experiment [4], 900 nM; in experiment [5] it was 8.5 ± 2.3 µM; in experiment [6], 2.3 ± 0.1 µM. This compound also yielded an IC50 in experiment [7] of 1.8 ± 0.2 µM.
As to `COc1cc(-c2ccc3ncnc(Nc4ccc(F)c(Cl)c4)c3c2)ccc1O` [Compound 14, 4-(4-(3-chloro-4-fluorophenylamino)quinazolin-6-yl)-2-methoxyphenol], the IC50 is > 50 µM in experiment [1]; 2160 nM in experiment [2]; 1090 nM in experiment [3]; 1010 nM in experiment [4]; 31.6 ± 2.5 µM in experiment [5]; > 50 µM in experiment [6]. Besides, the half-inhibitory concentration (IC50) in experiment [7] is > 50 µM. Also, the inhibition at 1 µM in experiment [4] is 52.7%.
In the case of `COc1cc(-c2ccc3ncnc(Nc4ccc(F)cc4)c3c2)ccc1O` [Compound 15, 4-(4-(4-fluorophenylamino)quinazolin-6-yl)-2-methoxyphenol], the 50% inhibitory concentration (IC50) in experiment [1] worked out at 2.5 ± 0.6 µM; in experiment [2] it was 1450 nM; in experiment [3], 1020 nM; in experiment [4] it was 1150 nM; in experiment [5], 11.8 ± 4.6 µM; in experiment [6], 2.7 ± 0.2 µM. The same compound had an IC50 in experiment [7] of 4.1 ± 0.3 µM. In addition, in experiment [4], the inhibition at 1 µM was 44.4%.
On to `COc1cc(-c2cc3c(Nc4cccc(O)c4)ncnc3cc2OC)ccc1O` [Compound 31, 4-(4-(3-hydroxyphenylamino)-7-methoxyquinazolin-6-yl)-2-methoxyphenol], for which the IC50 was > 50 µM in experiment [1]; 781 nM in experiment [2]; 94 nM in experiment [3]; 87 nM in experiment [4]; > 50 µM in experiment [5]; > 50 µM in experiment [6]. In addition, the IC50 in experiment [7] is > 50 µM. The inhibition at 1 µM in experiment [4] amounted to 93.8%.
With `COc1cc(-c2cc3c(Nc4cc(O)ccc4Cl)ncnc3cc2OC)ccc1O` [Compound 43, 4-(4-(2-chloro-5-hydroxyphenylamino)-7-methoxyquinazolin-6-yl)-2-methoxyphenol], the IC50 in experiment [1] was determined as 2.2 ± 0.4 µM; in experiment [2], 245 nM; in experiment [3], 47.3 nM; in experiment [4], 40.4 nM; in experiment [5], 24.7 ± 2.4 µM; in experiment [6], 8.7 ± 2.7 µM. Moreover, the IC50 in experiment [7] is > 50 µM. Besides, the inhibition at 1 µM in experiment [4] is 94.3%.
For `COc1cc2ncnc(Nc3cccc(O)c3)c2cc1-c1ccc(O)cc1` [Compound 49, 3-(6-(4-hydroxyphenyl)-7-methoxyquinazolin-4-ylamino)phenol], the IC50 is > 50 µM in experiment [1]; 790 nM in experiment [2]; 71.6 nM in experiment [3]; 55.3 nM in experiment [4]; > 50 µM in experiment [5]; > 50 µM in experiment [6]. In addition, the half-inhibitory concentration (IC50) in experiment [7] is > 50 µM. For the same compound, the inhibition at 1 µM in experiment [4] worked out at 90.3%.
For the compound `COc1cc(-c2ccc3ncnc(Nc4cccc5[nH]ncc45)c3c2)ccc1O` [Compound 51, 4-(4-(1H-indazol-4-ylamino)quinazolin-6-yl)-2-methoxyphenol], the half-maximal inhibitory concentration (IC50) in experiment [1] worked out at 1.6 ± 0.3 µM; in experiment [2], 404 nM; in experiment [3], 157 nM; in experiment [4], 121 nM; in experiment [5], 7.7 ± 0.3 µM; in experiment [6], 1.4 ± 0.1 µM. For the same compound, the IC50 in experiment [7] is 1.6 ± 0.4 µM. In addition, the inhibition at 1 µM in experiment [4] is 86%.
Take `COc1cc(-c2ccc3ncnc(Nc4cc(O)ccc4Cl)c3c2)ccc1O` [Compound 59, 4-(4-(2-chloro-5-hydroxyphenylamino)quinazolin-6-yl)-2-methoxyphenol]: the half-inhibitory concentration (IC50) in experiment [1] was 0.6 ± 0.3 µM; in experiment [2], 290 nM; in experiment [3] it was 64.7 nM; in experiment [4], 36.5 nM; in experiment [5] it was 4.5 ± 0.6 µM; in experiment [6], 0.7 ± 0.1 µM. 0.9 ± 0.2 µM corresponded to half-maximal inhibition in experiment [7] (IC50). In experiment [4], the inhibition at 1 µM worked out at 92.6%.
Consider `COc1cc(-c2ccc3ncnc(Nc4cccc(O)c4Cl)c3c2)ccc1O` [Compound 60, 2-chloro-3-(6-(4-hydroxy-3-methoxyphenyl)quinazolin-4-ylamino)phenol], for which the 50% inhibitory concentration (IC50) in experiment [1] is 1.3 ± 0.2 µM; in experiment [2] it was 152 nM; in experiment [3], 56.5 nM; in experiment [4], 39 nM; in experiment [5], 6.8 ± 0.16 µM; in experiment [6], 1.3 ± 0.3 µM. Moreover, the IC50 in experiment [7] was found to be 1.7 ± 0.5 µM. The inhibition at 1 µM in experiment [4] turned out to be 91%.
`COc1cc(-c2ccc3ncnc(Nc4cc(O)c(Cl)cc4Cl)c3c2)ccc1O` [Compound 61, 2,4-dichloro-5-(6-(4-hydroxy-3-methoxyphenyl)quinazolin-4-ylamino)phenol]: the IC50 in experiment [1] was 1.6 ± 0.4 µM; in experiment [2], 284 nM; in experiment [3], 59.9 nM; in experiment [4] it was 40.1 nM; in experiment [5], 7.4 ± 1.9 µM; in experiment [6], 1.9 ± 0.5 µM. The compound also had a 50% inhibitory concentration (IC50) in experiment [7] of 2.9 ± 0.4 µM. In addition, the inhibition at 1 µM in experiment [4] worked out at 92.6%.
Regarding `Oc1ccc(-c2ccc3ncnc(Nc4cccc(O)c4)c3c2)cc1` [Compound 62, 3-(6-(4-hydroxyphenyl)quinazolin-4-ylamino)phenol], the IC50 in experiment [1] was found to be 3.7 ± 1.6 µM; in experiment [2], 335 nM; in experiment [3], 60.1 nM; in experiment [4] it was 32.5 nM; in experiment [5] it was 11.7 ± 2.5 µM; in experiment [6], 2.6 ± 0.1 µM. The compound further had an IC50 in experiment [7] of 7.2 ± 1.4 µM. Further, in experiment [4], the inhibition at 1 µM was determined as 93.8%.
On to `Oc1cccc(Nc2ncnc3ccc(-c4cccc(O)c4)cc23)c1` [Compound 63, 3-(6-(3-hydroxyphenyl)quinazolin-4-ylamino)phenol], for which the IC50 in experiment [1] amounted to 5.3 ± 1 µM; in experiment [2], 300 nM; in experiment [3], 51.7 nM; in experiment [4], 27.7 nM; in experiment [5], 7.1 ± 1.3 µM; in experiment [6], 2.3 ± 0.6 µM. The midpoint of inhibition in experiment [7], the IC50, lay at 9.5 ± 1.3 µM. In addition, the inhibition at 1 µM in experiment [4] came to 93.4%.
As for `Oc1cccc(-c2ccc3nccc(Nc4cccc5[nH]ncc45)c3c2)c1` [Compound 148, 3-(4-(1H-indazol-4-ylamino)quinolin-6-yl)phenol], the IC50 in experiment [2] stood at 584 nM; in experiment [3], 359 nM; in experiment [4], 230 nM. In addition, the inhibition at 1 µM in experiment [4] was 68.9%.
As for `COc1ccc(-c2ccc3ncnc(Oc4cccc(O)c4)c3c2)cc1` [Compound 152, 3-(6-(4-methoxyphenyl)quinazolin-4-yloxy)phenol], the 50% inhibitory concentration (IC50) in experiment [1] was > 50 µM; in experiment [2] it was 2330 nM; in experiment [3], 198 nM; in experiment [4] it was 131 nM; in experiment [6], > 50 µM; in experiment [7], > 50 µM. Moreover, in experiment [4], the inhibition at 1 µM came to 86.4%.
With `c1cc(Nc2ncnc3ccc(-c4ccc5[nH]ncc5c4)cc23)c2cn[nH]c2c1` [Compound 153, N-(1H-indazol-4-yl)-6-(1H-indazol-5-yl)quinazolin-4-amine], the half-maximal inhibitory concentration (IC50) in experiment [1] is 7.7 ± 0.6 µM; in experiment [2], 723 nM; in experiment [3], 236 nM; in experiment [4] it was 188 nM; in experiment [6] it was 6.4 ± 0.9 µM; in experiment [7], 7.8 ± 0.3 µM. Also, in experiment [4], the inhibition at 1 µM turned out to be 84.4%.
As for `Oc1c(F)ccc(Nc2ncnc3ccc(-c4ccc(Cl)cc4)cc23)c1F` [Compound 164, 3-(6-(4-chlorophenyl)quinazolin-4-ylamino)-2,6-difluorophenol], the figures for the concentration for half-maximal inhibition (IC50) in experiment [2], in experiment [3] and in experiment [4] were 3510 nM, 216 nM and 151 nM, respectively. The inhibition at 1 µM in experiment [4] worked out at 83%.

Source of the values: patent US8785459B2, “Quinazoline compounds as kinase inhibitors” (Development Center for Biotechnology, priority 2011, dated 2014).
